Five compounds from ChEMBL document CHEMBL4184221, “Identification and optimization of soluble epoxide hydrolase inhibitors with dual potency towards fatty acid amide hydrolase” (Bioorg Med Chem Lett, 2018) can be followed below.

In assay [1] the target is T1, Bifunctional epoxide hydrolase 2 (Homo sapiens, UniProt P34913).
T1 sequence (P34913 whole entry): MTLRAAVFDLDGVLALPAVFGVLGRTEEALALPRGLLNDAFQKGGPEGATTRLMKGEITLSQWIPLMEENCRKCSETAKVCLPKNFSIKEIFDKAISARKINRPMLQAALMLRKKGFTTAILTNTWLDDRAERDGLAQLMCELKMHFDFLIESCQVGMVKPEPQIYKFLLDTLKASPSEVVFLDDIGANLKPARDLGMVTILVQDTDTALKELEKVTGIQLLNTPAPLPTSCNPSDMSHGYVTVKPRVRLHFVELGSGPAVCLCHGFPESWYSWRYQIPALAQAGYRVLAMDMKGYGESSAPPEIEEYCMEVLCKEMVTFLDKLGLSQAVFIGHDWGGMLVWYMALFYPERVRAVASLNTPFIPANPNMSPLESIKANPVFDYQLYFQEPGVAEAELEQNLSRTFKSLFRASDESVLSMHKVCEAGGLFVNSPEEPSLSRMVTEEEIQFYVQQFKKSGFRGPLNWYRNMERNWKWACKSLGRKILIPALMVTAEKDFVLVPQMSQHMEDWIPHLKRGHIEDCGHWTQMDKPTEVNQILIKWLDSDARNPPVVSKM
The experiment in a line: Inhibition of human recombinant soluble epoxide hydrolase expressed in baculovirus-infected High Five cells S9 fraction using CMNPC substrate by fluorescence based assay. It counts as cell-based.

Assay [2] is filed under the species Felis catus. The experiment in a line: Inhibition of FAAH in cat brain microsomes using OMP substrate by fluorescence based assay. The following applies: concentration not given here.
Assay [3] is filed under the species Canis lupus familiaris. Put plainly: Inhibition of FAAH in dog brain microsomes using OMP substrate by fluorescence based assay. The following applies: concentration not given here.
Assay [4] can be described thus: (§1) Inhibition of FAAH in horse brain microsomes using OMP substrate by fluorescence based assay. More on the design: species or system Equus caballus.
The species entered for assay [5] is Equus caballus. The description is as §1. The note with it: concentration not given here.
Assay [6] has as its target T2, Bifunctional epoxide hydrolase 2 (Homo sapiens) (UniProt P34913).
T2 sequence (whole entry): T1 sequence (P34913 whole entry)

Activity calls are given as the source filed them. The rule behind the calls is not given here. Some results are limits rather than exact numbers.

As usually defined, the IC50 is the concentration needed to halve the response being measured. The term inhibition denotes the relative decrease from the control value, in per cent. Low values mean a weak effect, high ones a strong effect. `NC(=O)c1cccc(-c2cccc(OC(=O)NC3CCCCC3)c2)c1` [URB-597]: the IC50 in assay [1] was found to be 1100 nM; in assay [4] it was 7 nM. Moreover, the inhibition in assay [2], in assay [3] and in assay [5] was over 80% each time. Besides, the TDI result in assay [6] is “Active”.
Take `O=C(Nc1ccc(Oc2ccc(C(=O)O)cc2)cc1)Nc1ccc(OC(F)(F)F)cc1`: the IC50 in assay [1] was 7 nM.
On the same count and under the same terms, the value for `O=C(Nc1ccc(Cl)cc1)N[C@H]1CC[C@H](Oc2ccc(C(=O)O)cc2)CC1` was 7 nM; that for `O=C(NC1CCCCC1)N[C@H]1CC[C@H](Oc2ccc(C(=O)O)cc2)CC1` was 6 nM.
Turning to `O=C(Nc1ccc(OC(F)(F)F)cc1)N[C@H]1CC[C@H](Oc2ccc(C(=O)O)cc2)CC1`, the TDI result in assay [6] is “inactive”.
